Assay results published in patent publication US12139492B2 (Endotarget Inc., priority 2021, dated 2024).

What was measured:
Mino cells = assay: Antiproliferative effect, MTS cell viability assay, Mino cells; assay type: cell-based; conditions: Homo sapiens, MINO, Mino mantle cell lymphoma cells; read-out: IC50 (anti-proliferation) Mino cells
In short: (§1)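 Readout was MTS-derived formazan absorbance (490 nm) reflecting metabolically active cells. Treatment lasted 72 h over a 0–10 μM range (0.001, 0.01, 0.1, 1, 10 μM) in JeKo-1 and Mino B-cell malignancy cells.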

JeKo-1 cells = assay: Antiproliferative effect, MTS cell viability assay, JeKo-1 cells; assay type: cell-based; conditions: Homo sapiens; JeKo-1 mantle cell lymphoma cells; read-out: IC50 (anti-proliferation) JeKO-1 cells
In short: as §1

BTK = BTK (Homo sapiens, UniProt Q06187); assay: Degradation of BTK protein in Namalwa cells (Western blot; DC50, Dmax); conditions: for DC50: BTK degradation, cell line not given
BTK, sequence (Q06187 whole entry): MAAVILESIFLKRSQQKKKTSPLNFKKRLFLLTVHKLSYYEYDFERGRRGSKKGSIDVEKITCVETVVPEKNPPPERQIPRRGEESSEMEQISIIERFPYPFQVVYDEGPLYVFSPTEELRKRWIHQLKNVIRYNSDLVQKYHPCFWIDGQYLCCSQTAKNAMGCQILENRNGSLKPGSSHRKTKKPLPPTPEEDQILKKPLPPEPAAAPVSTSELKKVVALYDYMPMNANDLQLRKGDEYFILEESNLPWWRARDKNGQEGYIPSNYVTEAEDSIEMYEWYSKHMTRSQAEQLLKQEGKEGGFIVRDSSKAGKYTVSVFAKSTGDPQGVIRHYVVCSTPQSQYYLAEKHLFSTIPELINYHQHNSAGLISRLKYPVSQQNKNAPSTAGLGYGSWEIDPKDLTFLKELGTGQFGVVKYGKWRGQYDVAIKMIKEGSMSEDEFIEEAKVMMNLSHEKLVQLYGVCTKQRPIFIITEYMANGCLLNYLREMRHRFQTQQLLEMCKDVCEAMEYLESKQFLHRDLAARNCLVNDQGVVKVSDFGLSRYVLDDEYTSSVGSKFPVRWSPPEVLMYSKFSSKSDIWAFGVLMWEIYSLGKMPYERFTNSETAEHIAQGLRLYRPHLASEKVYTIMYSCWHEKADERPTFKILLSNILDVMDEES

Row | Compound | IC50 (Mino cells) [nM] | IC50 (JeKo-1 cells) [nM] | Dmax (BTK) [%] | DC50 (BTK) [nM]
1 | NC(=O)c1c(-c2ccc(Oc3ccccc3)cc2)nn2c1NCCC2C1CCN(C(=O)N2CCC(CN3CCC(c4ccc5c(c4)C(=O)N(C4CCC(=O)NC4=O)C5=O)CC3)CC2)CC1 (stereo not shown) [Compound 279, 7-(1-(4-((4-(2-(2,6-dioxopiperidin-3-yl)-1,3-dioxoisoindolin-5-yl)piperidin-1-yl)methyl)piperidine-1-carbonyl)piperidin-4-yl)-2-(4-phenoxyphenyl)-4,5,6,7-tetrahydropyrazolo[1,5-a]pyrimidine-3-carboxamide] | 1000 to 10000 | 1000 to 10000 | > 90 | 10 to 50
2 | NC(=O)c1c(-c2ccc(Oc3ccccc3)cc2)nn2c1NCCC2C1CCN(C(=O)N2CCC(CN3CCC(c4ccc5c(c4)CN(C4CCC(=O)NC4=O)C5=O)CC3)CC2)CC1 (stereo not shown) [Compound 280, 7-(1-(4-((4-(2-(2,6-dioxopiperidin-3-yl)-1-oxoisoindolin-5-yl)piperidin-1-yl)methyl)piperidine-1-carbonyl)piperidin-4-yl)-2-(4-phenoxyphenyl)-4,5,6,7-tetrahydropyrazolo[1,5-a]pyrimidine-3-carboxamide] | 1000 to 10000 | 1000 to 10000 | > 90 | < 10
3 | NC(=O)c1c(-c2ccc(Oc3ccccc3)cc2)nn2c1NCCC2C1CCN(C(=O)N2CCN(CCN3CCN(c4ccc5c(c4)C(=O)N(C4CCC(=O)NC4=O)C5=O)CC3)CC2)CC1 (stereo not shown) [Compound 281, 7-(1-(4-(2-(4-(2-(2,6-dioxopiperidin-3-yl)-1,3-dioxoisoindolin-5-yl)piperazin-1-yl)ethyl)piperazine-1-carbonyl)piperidin-4-yl)-2-(4-phenoxyphenyl)-4,5,6,7-tetrahydropyrazolo[1,5-a]pyrimidine-3-carboxamide] | 1000 to 10000 | 1000 to 10000 | > 90 | 10 to 50
4 | NC(=O)c1c(-c2ccc(Oc3ccccc3)cc2)nn2c1NCCC2C1CCN(C(=O)N2CCN(CCN3CCN(c4ccc5c(c4)CN(C4CCC(=O)NC4=O)C5=O)CC3)CC2)CC1 (stereo not shown) [Compound 282, 7-(1-(4-(2-(4-(2-(2,6-dioxopiperidin-3-yl)-1-oxoisoindolin-5-yl)piperazin-1-yl)ethyl)piperazine-1-carbonyl)piperidin-4-yl)-2-(4-phenoxyphenyl)-4,5,6,7-tetrahydropyrazolo[1,5-a]pyrimidine-3-carboxamide] | 1000 to 10000 | > 10000 | > 90 | 10 to 50
5 | NC(=O)c1c(-c2ccc(Oc3ccccc3)cc2)nn2c1NCCC2C1CCN(C(=O)N2CCN(CCC3CCN(c4ccc5c(c4)C(=O)N(C4CCC(=O)NC4=O)C5=O)CC3)CC2)CC1 (stereo not shown) [Compound 283, 7-(1-(4-(2-(1-(2-(2,6-dioxopiperidin-3-yl)-1,3-dioxoisoindolin-5-yl)piperidin-4-yl)ethyl)piperazine-1-carbonyl)piperidin-4-yl)-2-(4-phenoxyphenyl)-4,5,6,7-tetrahydropyrazolo[1,5-a]pyrimidine-3-carboxamide] | 1000 to 10000 | > 10000 | > 75 | 10 to 50
6 | NC(=O)c1c(-c2ccc(Oc3ccccc3)cc2)nn2c1NCCC2C1CCN(C(=O)N2CCN(CCC3CCN(c4ccc5c(c4)CN(C4CCC(=O)NC4=O)C5=O)CC3)CC2)CC1 (stereo not shown) [Compound 284, 7-(1-(4-(2-(1-(2-(2,6-dioxopiperidin-3-yl)-1-oxoisoindolin-5-yl)piperidin-4-yl)ethyl)piperazine-1-carbonyl)piperidin-4-yl)-2-(4-phenoxyphenyl)-4,5,6,7-tetrahydropyrazolo[1,5-a]pyrimidine-3-carboxamide] | 1000 to 10000 | 1000 to 10000 | > 75 | 10 to 50
7 | NC(=O)c1c(-c2ccc(Oc3ccccc3)cc2)nn2c1NCCC2C1CCN(C(=O)N2CCC(CCN3CCC(c4ccc5c(c4)C(=O)N(C4CCC(=O)NC4=O)C5=O)CC3)CC2)CC1 (stereo not shown) [Compound 285, 7-(1-(4-(2-(4-(2-(2,6-dioxopiperidin-3-yl)-1,3-dioxoisoindolin-5-yl)piperidin-1-yl)ethyl)piperidine-1-carbonyl)piperidin-4-yl)-2-(4-phenoxyphenyl)-4,5,6,7-tetrahydropyrazolo[1,5-a]pyrimidine-3-carboxamide] | 1000 to 10000 | 1000 to 10000 | > 75 | > 50
8 | NC(=O)c1c(-c2ccc(Oc3ccccc3)cc2)nn2c1NCCC2C1CCN(C(=O)N2CCC(CCN3CCC(c4ccc5c(c4)CN(C4CCC(=O)NC4=O)C5=O)CC3)CC2)CC1 (stereo not shown) [Compound 286, 7-(1-(4-(2-(4-(2-(2,6-dioxopiperidin-3-yl)-1-oxoisoindolin-5-yl)piperidin-1-yl)ethyl)piperidine-1-carbonyl)piperidin-4-yl)-2-(4-phenoxyphenyl)-4,5,6,7-tetrahydropyrazolo[1,5-a]pyrimidine-3-carboxamide] | 1000 to 10000 | 1000 to 10000 | > 75 | > 50
9 | NC(=O)c1c(-c2ccc(Oc3ccccc3)cc2)nn2c1NCCC2C1CCN(C(=O)N2CCN(CCN3CCC(c4ccc5c(c4)C(=O)N(C4CCC(=O)NC4=O)C5=O)CC3)CC2)CC1 (stereo not shown) [Compound 287] | 1000 to 10000 | > 10000 | > 75 | 10 to 50
10 | NC(=O)c1c(-c2ccc(Oc3ccccc3)cc2)nn2c1NCCC2C1CCN(C(=O)N2CCN(CCN3CCC(c4ccc5c(c4)CN(C4CCC(=O)NC4=O)C5=O)CC3)CC2)CC1 (stereo not shown) [Compound 288, 7-(1-(4-(2-(4-(2-(2,6-dioxopiperidin-3-yl)-1-oxoisoindolin-5-yl)piperidin-1-yl)ethyl)piperazine-1-carbonyl)piperidin-4-yl)-2-(4-phenoxyphenyl)-4,5,6,7-tetrahydropyrazolo[1,5-a]pyrimidine-3-carboxamide] | 1000 to 10000 | 1000 to 10000 | > 75 | 10 to 50
11 | NC(=O)c1c(-c2ccc(Oc3ccccc3)cc2)nn2c1NCC[C@H]2C1CCN(C(=O)N2CCN(CC3CCN(c4ccc5c(c4)C(=O)N(C4CCC(=O)NC4=O)C5=O)CC3)CC2)CC1 (stereo partly drawn) [Compound 289, (7S)-7-(1-(4-((1-(2-(2,6-dioxopiperidin-3-yl)-1,3-dioxoisoindolin-5-yl)piperidin-4-yl)methyl)piperazine-1-carbonyl)piperidin-4-yl)-2-(4-phenoxyphenyl)-4,5,6,7-tetrahydropyrazolo[1,5-a]pyrimidine-3-carboxamide] | 1000 to 10000 | < 1000 | > 90 | 10 to 50
12 | NC(=O)c1c(-c2ccc(Oc3ccccc3)cc2)nn2c1NCC[C@H]2C1CCN(C(=O)N2CCN(CC3CCN(c4ccc5c(c4)CN(C4CCC(=O)NC4=O)C5=O)CC3)CC2)CC1 (stereo partly drawn) [Compound 290, (7S)-7-(1-(4-((1-(2-(2,6-dioxopiperidin-3-yl)-1-oxoisoindolin 5-yl)piperidin-4-yl)methyl)piperazine-1-carbonyl)piperidin-4-yl)-2-(4-phenoxyphenyl)-4,5,6,7-tetrahydropyrazolo[1,5-a]pyrimidine-3-carboxamide] | 1000 to 10000 | < 1000 | > 90 | < 10
13 | NC(=O)c1c(-c2ccc(Oc3ccccc3)cc2)nn2c1NCC[C@H]2C1CCN(C(=O)N2CCC(CN3CCN(c4ccc5c(c4)C(=O)N(C4CCC(=O)NC4=O)C5=O)CC3)CC2)CC1 (stereo partly drawn) [Compound 291, (7S)-7-(1-(4-((4-(2-(2,6-dioxopiperidin-3-yl)-1,3-dioxoisoindolin-5-yl)piperazin-1-yl)methyl)piperidine-1-carbonyl)piperidin-4-yl)-2-(4-phenoxyphenyl)-4,5,6,7-tetrahydropyrazolo[1,5-a]pyrimidine-3-carboxamide] | < 1000 | < 1000 | > 90 | 10 to 50
14 | NC(=O)c1c(-c2ccc(Oc3ccccc3)cc2)nn2c1NCC[C@H]2C1CCN(C(=O)N2CCC(CN3CCN(c4ccc5c(c4)CN(C4CCC(=O)NC4=O)C5=O)CC3)CC2)CC1 (stereo partly drawn) [Compound 292, (7S)-7-(1-(4-((4-(2-(2,6-dioxopiperidin-3-yl)-1-oxoisoindolin-5-yl)piperazin-1-yl)methyl)piperidine-1-carbonyl)piperidin-4-yl)-2-(4-phenoxyphenyl)-4,5,6,7-tetrahydropyrazolo[1,5-a]pyrimidine-3-carboxamide] | < 1000 | < 1000 | > 90 | < 10
15 | NC(=O)c1c(-c2ccc(Oc3ccccc3)cc2)nn2c1NCC[C@H]2C1CCN(C(=O)N2CCC(CC3CCN(c4ccc5c(c4)C(=O)N(C4CCC(=O)NC4=O)C5=O)CC3)CC2)CC1 (stereo partly drawn) [Compound 293, (7S)-7-(1-(4-((1-(2-(2,6-dioxopiperidin-3-yl)-1,3-dioxoisoindolin-5-yl)piperidin-4-yl)methyl)piperidine-1-carbonyl)piperidin-4-yl)-2-(4-phenoxyphenyl)-4,5,6,7-tetrahydropyrazolo[1,5-a]pyrimidine-3-carboxamide] | < 1000 | 1000 to 10000 | > 90 | 10 to 50
16 | NC(=O)c1c(-c2ccc(Oc3ccccc3)cc2)nn2c1NCC[C@H]2C1CCN(C(=O)N2CCC(CC3CCN(c4ccc5c(c4)CN(C4CCC(=O)NC4=O)C5=O)CC3)CC2)CC1 (stereo partly drawn) [Compound 294, (7S)-7-(1-(4-((1-(2-(2,6-dioxopiperidin-3-yl)-1-oxoisoindolin-5-yl)piperidin-4-yl)methyl)piperidine-1-carbonyl)piperidin-4-yl)-2-(4-phenoxyphenyl)-4,5,6,7-tetrahydropyrazolo[1,5-a]pyrimidine-3-carboxamide] | < 1000 | 1000 to 10000 | > 90 | 10 to 50
